Experimental data from paper PMC11189555, “Aryl amino acetamides prevent Plasmodium falciparum ring development via targeting the lipid-transfer protein PfSTART1” (Nature Communications, 2024).
Read-outs that look alike come from different tables or passages of the source.

Legend:
[1] = system: 3D7 P. falciparum parasites; experiment: Growth inhibition assay (72 h, LDH activity); format: cell-based, Plasmodium falciparum; conditions: for EC50: Plasmodium falciparum
Experimental: (§1) Parasite growth assays with inhibitory compounds were performed as per[11] and are fully described in the Supplementary Information. […]
(§2) Growth inhibition assays. Synchronised ring-stage parasites (0.3-0.6% parasitemia, 2% haematocrit) were grown for 72 h in a serial-dilution of the compound under […]
(§3) and compound 4. Note that M-833 was first purchased from MolPort (MolPort -002-267-916) then made in-house at WEHI: the differences observed in EC50s across experiments are attributed to the different batches of M -833. For some experiments, 0, 0.25 or 2.5 mM of glucosamine (GlcN) was also added. Experiments were set up in technical duplicates or triplicates. Following a freeze -thaw cycle, lactate dehydrogenase (LDH) activity was assessed as an indicator of parasite growt h 5. 30 μL of parasite culture was incubated for 30 min in the dark with 75 μL Malstat mixture (0.1 M Tris pH 9.0, 20 g/L lactic acid, pH 7.5, 0.2% Triton-X100, 0.5 g/L acetylpyridine adenine dinucleotide (APAD, Sigma), 200 μg/mL nitroblue tetrazolium (NBT; Sigma), 1 μg/mL phenozine ethosulfate (PES; Sigma)). Absorbance was then measured at 650 nm, transformed using the formula below, plotted against the logarithm of the concentrations, and a non-linear regression (log(inhibitor) vs. response, variable slope) was calculated using GraphPad Prism to assess the half-inhibitory […]
(§4) Growth inhibition % = (1 − average(sample)− average(uRBC)) ∗ 100 […]
(§5) The DMSO samples were also used to assess growth of parasite in the presence of 0.25 and 2.5 mM GlcN (normalised by DMSO in 0 mM GlcN). […]

[2] = system: PopD-D7 M-833 resistant clone (PfSTART1 N309K); experiment: Growth inhibition assay (72 h, LDH activity); format: cell-based, Plasmodium falciparum
Experimental: The drug was then removed, and parasites were allowed to recover. Another cycle of drug treatment (3 μM M-833) was then resumed. The resistant lines were cloned out by limiting dilution (diluting the culture into a 96-well plate to achieve an average of ~0.3 parasites per well), prior to growth inhibition assays and genomic DNA (gDNA) extraction (DNeasy Blood and Tissue kit (Qiagen)[18].
as §1, §2, §3, §4, §5

In the case of `CC(C)(Oc1ccc(Cl)c(S(=O)(=O)N2CCOCC2)c1)C(=O)Nc1ccc(F)c(Cl)c1` [compound 3], the “(av-uRBC) / (DMSO-uRBC) x100” value ([1]; 3D7, conc. 3.04832 nM, Biological replicate 1 (2021-10-25)) is reported as 98.9546, the “(av-uRBC) / (DMSO-uRBC) x100” value ([1]; 3D7, conc. 3.04832 nM, Biological replicate 2 (2021-11-03)) is reported as 99.5733 and the “(av-uRBC) / (DMSO-uRBC) x100” value ([1]; 3D7, conc. 3.04832 nM, Biological replicate 3 (2021-11-11)) is reported as 55.9066. The “(av-uRBC) / (DMSO-uRBC) x100” value ([1]; 3D7, conc. 9.14495 nM, Biological replicate 1 (2021-10-25)) was 81.8447, the “(av-uRBC) / (DMSO-uRBC) x100” value ([1]; 3D7, conc. 9.14495 nM, Biological replicate 2 (2021-11-03)) was 87.421 and the “(av-uRBC) / (DMSO-uRBC) x100” value ([1]; 3D7, conc. 9.14495 nM, Biological replicate 3 (2021-11-11)) was 38.3092. For the same molecule, the “(av-uRBC) / (DMSO-uRBC) x100” value ([1]; 3D7, conc. 27.4348 nM, Biological replicate 1 (2021-10-25)) was 30.9131, the “(av-uRBC) / (DMSO-uRBC) x100” value ([1]; 3D7, conc. 27.4348 nM, Biological replicate 2 (2021-11-03)) was 28.899 and the “(av-uRBC) / (DMSO-uRBC) x100” value ([1]; 3D7, conc. 27.4348 nM, Biological replicate 3 (2021-11-11)) was 16.2848. For the same molecule, the “(av-uRBC) / (DMSO-uRBC) x100” value ([1]; 3D7, conc. 82.3045 nM, Biological replicate 1 (2021-10-25)) was 11.7409, the “(av-uRBC) / (DMSO-uRBC) x100” value ([1]; 3D7, conc. 82.3045 nM, Biological replicate 2 (2021-11-03)) was 11.9543 and the “(av-uRBC) / (DMSO-uRBC) x100” value ([1]; 3D7, conc. 82.3045 nM, Biological replicate 3 (2021-11-11)) was 7.809. The “(av-uRBC) / (DMSO-uRBC) x100” value ([1]; 3D7, conc. 246.914 nM, Biological replicate 1 (2021-10-25)) was 8.8892, the “(av-uRBC) / (DMSO-uRBC) x100” value ([1]; 3D7, conc. 246.914 nM, Biological replicate 2 (2021-11-03)) was 10.72 and the “(av-uRBC) / (DMSO-uRBC) x100” value ([1]; 3D7, conc. 246.914 nM, Biological replicate 3 (2021-11-11)) was 6.2069. The “(av-uRBC) / (DMSO-uRBC) x100” value ([1]; 3D7, conc. 740.741 nM, Biological replicate 1 (2021-10-25)) was 8.477, the “(av-uRBC) / (DMSO-uRBC) x100” value ([1]; 3D7, conc. 740.741 nM, Biological replicate 2 (2021-11-03)) was 10.3467 and the “(av-uRBC) / (DMSO-uRBC) x100” value ([1]; 3D7, conc. 740.741 nM, Biological replicate 3 (2021-11-11)) was 4.271. The “(av-uRBC) / (DMSO-uRBC) x100” value ([1]; 3D7, conc. 2222.22 nM, Biological replicate 1 (2021-10-25)) was 8.256, the “(av-uRBC) / (DMSO-uRBC) x100” value ([1]; 3D7, conc. 2222.22 nM, Biological replicate 2 (2021-11-03)) was 10.0343 and the “(av-uRBC) / (DMSO-uRBC) x100” value ([1]; 3D7, conc. 2222.22 nM, Biological replicate 3 (2021-11-11)) was 3.637. For the same molecule, the “(av-uRBC) / (DMSO-uRBC) x100” value ([1]; 3D7, conc. 6666.67 nM, Biological replicate 1 (2021-10-25)) was 8.6332, the “(av-uRBC) / (DMSO-uRBC) x100” value ([1]; 3D7, conc. 6666.67 nM, Biological replicate 2 (2021-11-03)) was 8.244 and the “(av-uRBC) / (DMSO-uRBC) x100” value ([1]; 3D7, conc. 6666.67 nM, Biological replicate 3 (2021-11-11)) was 2.725. For the same molecule, the “(av-uRBC) / (DMSO-uRBC) x100” value ([1]; 3D7, conc. 20000 nM, Biological replicate 1 (2021-10-25)) was 7.467, the “(av-uRBC) / (DMSO-uRBC) x100” value ([1]; 3D7, conc. 20000 nM, Biological replicate 2 (2021-11-03)) was 5.95 and the “(av-uRBC) / (DMSO-uRBC) x100” value ([1]; 3D7, conc. 20000 nM, Biological replicate 3 (2021-11-11)) was -1.791. For the same molecule, the “improvement in antiparasitic activity relative to the activity of M-833” value ([1]; EC50 based) was 10 fold, the EC50 ([1]; 3D7, 72 h, Supplementary Table 1, 3D7, 72 h, read-out: EC50) was 0.016 µM and the EC50 ([1]; 3D7, Fig 4A, 3D7 parasites, read-out: Pf 3D7 EC50 (SD)) was 0.15 µM. For the same molecule, the EC50 ([1]; 3D7, text on structure activity relationship (Fig 4A), read-out: EC50, antiparasitic activity) was 0.12 µM, the EC50 ([2]; Plasmodium falciparum, Supplementary Table 1, PopD-D7 (N309K), 72 h, read-out: EC50) was 1.4 µM and the “resistance of the line compared with 3D7” value ([2]; PopD-D7 (N309K), Fig 4B) was “highly resistant”. For the same molecule, the “(av-uRBC) / (DMSO-uRBC) x100” value ([2]; PopD-D7, 3.04832 nM, biological replicate 1) was 117.893, the “(av-uRBC) / (DMSO-uRBC) x100” value ([2]; PopD-D7, 3.04832 nM, biological replicate 2) was 107.059 and the “(av-uRBC) / (DMSO-uRBC) x100” value ([2]; PopD-D7, 3.04832 nM, biological replicate 3) was 122.96. The “(av-uRBC) / (DMSO-uRBC) x100” value ([2]; PopD-D7, 9.14495 nM, biological replicate 1) was 119.508, the “(av-uRBC) / (DMSO-uRBC) x100” value ([2]; PopD-D7, 9.14495 nM, biological replicate 2) was 110.415 and the “(av-uRBC) / (DMSO-uRBC) x100” value ([2]; PopD-D7, 9.14495 nM, biological replicate 3) was 124.421. For the same molecule, the “(av-uRBC) / (DMSO-uRBC) x100” value ([2]; PopD-D7, 27.4348 nM, biological replicate 1) was 119.539, the “(av-uRBC) / (DMSO-uRBC) x100” value ([2]; PopD-D7, 27.4348 nM, biological replicate 2) was 110.363 and the “(av-uRBC) / (DMSO-uRBC) x100” value ([2]; PopD-D7, 27.4348 nM, biological replicate 3) was 140.932. For the same molecule, the “(av-uRBC) / (DMSO-uRBC) x100” value ([2]; PopD-D7, 82.3045 nM, biological replicate 1) was 115.279, the “(av-uRBC) / (DMSO-uRBC) x100” value ([2]; PopD-D7, 82.3045 nM, biological replicate 2) was 110.433 and the “(av-uRBC) / (DMSO-uRBC) x100” value ([2]; PopD-D7, 82.3045 nM, biological replicate 3) was 132.525. For the same molecule, the “(av-uRBC) / (DMSO-uRBC) x100” value ([2]; PopD-D7, 246.914 nM, biological replicate 1) was 110.69, the “(av-uRBC) / (DMSO-uRBC) x100” value ([2]; PopD-D7, 246.914 nM, biological replicate 2) was 106.686 and the “(av-uRBC) / (DMSO-uRBC) x100” value ([2]; PopD-D7, 246.914 nM, biological replicate 3) was 118.688. The “(av-uRBC) / (DMSO-uRBC) x100” value ([2]; PopD-D7, 740.741 nM, biological replicate 1) was 93.2195, the “(av-uRBC) / (DMSO-uRBC) x100” value ([2]; PopD-D7, 740.741 nM, biological replicate 2) was 100.295 and the “(av-uRBC) / (DMSO-uRBC) x100” value ([2]; PopD-D7, 740.741 nM, biological replicate 3) was 70.3418. For the same molecule, the “(av-uRBC) / (DMSO-uRBC) x100” value ([2]; PopD-D7, 2222.22 nM, biological replicate 1) was 51.7543, the “(av-uRBC) / (DMSO-uRBC) x100” value ([2]; PopD-D7, 2222.22 nM, biological replicate 2) was 59.804 and the “(av-uRBC) / (DMSO-uRBC) x100” value ([2]; PopD-D7, 2222.22 nM, biological replicate 3) was 18.6053. For the same molecule, the “(av-uRBC) / (DMSO-uRBC) x100” value ([2]; PopD-D7, 6666.67 nM, biological replicate 1) was 13.8697, the “(av-uRBC) / (DMSO-uRBC) x100” value ([2]; PopD-D7, 6666.67 nM, biological replicate 2) was 12.8436 and the “(av-uRBC) / (DMSO-uRBC) x100” value ([2]; PopD-D7, 6666.67 nM, biological replicate 3) was 12.5413. For the same molecule, the “(av-uRBC) / (DMSO-uRBC) x100” value ([2]; PopD-D7, 20000 nM, biological replicate 1) was 8.262, the “(av-uRBC) / (DMSO-uRBC) x100” value ([2]; PopD-D7, 20000 nM, biological replicate 2) was 6.955 and the “(av-uRBC) / (DMSO-uRBC) x100” value ([2]; PopD-D7, 20000 nM, biological replicate 3) was 7.3043. For the same molecule, the “Fold change compared to 3D7” value ([2]; Supplementary Table 1, EC50 on PopD-D7 vs 3D7) was 88 fold.
